# Reference: PMC5899197 (Journal of Virology, 2018)
# Target: T1, BNeV VLPs (rMA415; VP1-major capsid and VP2-minor capsid) (Newbury agent 1, UniProt Q288N7)
# T1 construct: gene ORF1
# Format: binding
# T1 sequence (Q288N7 whole entry, looked up): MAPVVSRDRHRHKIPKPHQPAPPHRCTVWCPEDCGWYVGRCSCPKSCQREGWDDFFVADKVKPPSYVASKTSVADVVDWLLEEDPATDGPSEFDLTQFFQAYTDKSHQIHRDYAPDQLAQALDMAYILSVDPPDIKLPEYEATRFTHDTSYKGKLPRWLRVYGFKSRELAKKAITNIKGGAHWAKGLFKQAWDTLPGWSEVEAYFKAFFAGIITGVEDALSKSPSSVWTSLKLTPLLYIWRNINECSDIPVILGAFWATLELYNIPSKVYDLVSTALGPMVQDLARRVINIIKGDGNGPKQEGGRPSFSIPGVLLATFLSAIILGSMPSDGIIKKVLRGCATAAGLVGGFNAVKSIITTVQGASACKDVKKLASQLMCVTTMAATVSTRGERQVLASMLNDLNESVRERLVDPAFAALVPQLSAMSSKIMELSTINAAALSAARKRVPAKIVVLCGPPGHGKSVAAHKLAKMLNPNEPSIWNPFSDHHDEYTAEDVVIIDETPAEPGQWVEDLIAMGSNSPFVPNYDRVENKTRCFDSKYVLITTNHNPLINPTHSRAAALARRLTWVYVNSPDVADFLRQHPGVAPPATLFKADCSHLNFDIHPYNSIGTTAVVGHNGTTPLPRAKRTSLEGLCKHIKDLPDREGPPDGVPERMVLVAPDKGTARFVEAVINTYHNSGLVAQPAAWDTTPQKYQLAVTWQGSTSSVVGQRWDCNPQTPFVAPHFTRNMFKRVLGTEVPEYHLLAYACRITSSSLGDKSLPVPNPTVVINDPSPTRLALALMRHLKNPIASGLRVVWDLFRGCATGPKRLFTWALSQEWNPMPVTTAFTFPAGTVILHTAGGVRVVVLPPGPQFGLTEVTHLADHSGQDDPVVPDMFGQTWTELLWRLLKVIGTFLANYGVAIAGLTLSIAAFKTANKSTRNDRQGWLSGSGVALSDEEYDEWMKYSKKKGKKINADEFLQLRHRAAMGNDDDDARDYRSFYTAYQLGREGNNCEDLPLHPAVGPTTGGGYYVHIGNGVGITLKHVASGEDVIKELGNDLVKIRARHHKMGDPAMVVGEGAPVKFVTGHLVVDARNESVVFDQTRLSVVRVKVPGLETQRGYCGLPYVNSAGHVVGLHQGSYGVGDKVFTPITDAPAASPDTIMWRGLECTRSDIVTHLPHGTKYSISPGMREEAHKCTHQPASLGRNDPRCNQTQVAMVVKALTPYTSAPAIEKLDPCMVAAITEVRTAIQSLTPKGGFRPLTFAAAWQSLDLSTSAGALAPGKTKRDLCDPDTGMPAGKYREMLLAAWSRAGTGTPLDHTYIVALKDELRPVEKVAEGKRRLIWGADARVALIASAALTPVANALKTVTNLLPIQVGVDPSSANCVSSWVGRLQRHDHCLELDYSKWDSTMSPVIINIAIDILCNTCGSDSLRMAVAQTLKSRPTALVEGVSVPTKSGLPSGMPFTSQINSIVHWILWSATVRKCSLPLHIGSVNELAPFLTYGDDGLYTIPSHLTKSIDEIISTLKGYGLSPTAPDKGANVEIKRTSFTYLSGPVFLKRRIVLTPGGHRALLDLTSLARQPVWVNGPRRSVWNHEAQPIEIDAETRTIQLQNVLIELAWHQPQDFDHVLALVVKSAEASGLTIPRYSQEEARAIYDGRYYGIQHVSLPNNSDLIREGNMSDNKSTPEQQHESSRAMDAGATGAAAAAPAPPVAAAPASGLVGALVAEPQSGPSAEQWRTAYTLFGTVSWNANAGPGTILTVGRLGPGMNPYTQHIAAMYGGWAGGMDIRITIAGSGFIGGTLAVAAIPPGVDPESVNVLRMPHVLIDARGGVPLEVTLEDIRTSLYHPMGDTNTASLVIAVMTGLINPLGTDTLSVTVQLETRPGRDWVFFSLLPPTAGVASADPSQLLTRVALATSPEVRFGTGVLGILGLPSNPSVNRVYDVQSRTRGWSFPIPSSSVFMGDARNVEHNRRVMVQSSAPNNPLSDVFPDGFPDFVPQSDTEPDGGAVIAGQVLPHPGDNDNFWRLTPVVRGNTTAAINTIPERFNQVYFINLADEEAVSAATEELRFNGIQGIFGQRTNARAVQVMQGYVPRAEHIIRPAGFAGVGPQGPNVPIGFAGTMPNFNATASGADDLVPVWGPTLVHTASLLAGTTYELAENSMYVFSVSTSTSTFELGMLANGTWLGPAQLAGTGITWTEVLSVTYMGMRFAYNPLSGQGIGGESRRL
row,Compound,"plate binding assay (ELISA), HRP-streptavidin, A450"
1,CC(=O)N[C@H]1C(O)O[C@H](CO)[C@@H](O[C@@H]2O[C@H](CO)[C@H](O)[C@H](O)[C@H]2O[C@@H]2O[C@@H](C)[C@@H](O)[C@@H](O)[C@@H]2O)[C@@H]1O[C@@H]1O[C@@H](C)[C@@H](O)[C@@H](O)[C@@H]1O (stereo partly shown) [Le^y],"sialyl-Le^a (SLe^a), Le^y, Le^x, αGal, H2, H1, SLe^x, A, and B type immobilized synthetic HBGA"
2,CC(=O)N[C@H]1C(O)O[C@H](CO)[C@@H](O[C@@H]2O[C@H](CO)[C@H](O)[C@H](O)[C@H]2O)[C@@H]1O[C@@H]1O[C@@H](C)[C@@H](O)[C@@H](O)[C@@H]1O (stereo partly shown) [Le^x],"sialyl-Le^a (SLe^a), Le^y, Le^x, αGal, H2, H1, SLe^x, A, and B type immobilized synthetic HBGA"
3,CC(=O)N[C@H]1C(O)O[C@H](CO)[C@@H](O[C@@H]2O[C@H](CO)[C@H](O)[C@H](O)[C@H]2O[C@@H]2O[C@@H](C)[C@@H](O)[C@@H](O)[C@@H]2O)[C@@H]1O (stereo partly shown) [H2],"sialyl-Le^a (SLe^a), Le^y, Le^x, αGal, H2, H1, SLe^x, A, and B type immobilized synthetic HBGA"
4,CC(=O)N[C@H]1[C@H]([C@H](O)[C@H](O)CO)O[C@@](O[C@H]2[C@@H](O)[C@@H](CO)O[C@@H](O[C@H]3[C@H](O[C@@H]4O[C@@H](C)[C@@H](O)[C@@H](O)[C@@H]4O)[C@@H](CO)OC(O)[C@@H]3NC(C)=O)[C@@H]2O)(C(=O)O)C[C@@H]1O (stereo partly shown) [sialyl-Le^a],"sialyl-Le^a (SLe^a), Le^y, Le^x, αGal, H2, H1, SLe^x, A, and B type immobilized synthetic HBGA"
